The term Cmax denotes the maximum level reached in the sampled fluid or tissue.

The data set in a line: In vivo pharmacokinetic time profile in mice (plasma and brain). Also noted: species or system mouse. The following applies: for Kp / half-life / Cmax: male; for Kp: C57, mouse, brain, read-out: measured brain/plasma ratio; for half-life / Cmax: C57, plasma; for half-life / Cmax / Estimated unbound brain Cmax / Unbound plasma, Cmax: mouse; for half-life: read-out: T½ (converted). How it is done: Male Sprague Dawley rats or male C57 mice from SLAC Laboratory Animal Co. Ltd., Shanghai, China or SIPPR/BK Laboratory Animal Co. Ltd., Shanghai, China were used for pharmacokinetic studies. Animals were group housed during acclimation and individually housed during in-life. The animal room environment was controlled (conditions: temperature 20 to 26° C., relative humidity 30 to 70%, 12 hours artificial light and 12 hours dark) and all animals have access to Certified Rodent Diet (Beijing KEAO XIELI Feed Co., Ltd. Beijing, P.R. China.) ad libitum. Animals were deprived of food overnight prior to dosing and fed approximately 4 hours post-dosing. Water was autoclaved before provided to the animals ad libitum.
For oral dosing, the dose formulation was administered via oral gavage.
Animals were anesthetized via isoflurane. At terminal time point, about 200 μL blood was collected from cardiac puncture or abdominal vein. All blood samples were transferred into microcentrifuge tubes containing 5 μL of K2EDTA (0.5 M) as anti-coagulant and placed on wet ice until processed for plasma by centrifugation (3,000 rpm for 5 minutes at 2 to 8° C.) within half an hour of collection and kept at −70±10° C. until LC/MSMS analysis
After blood collection, brain was harvested and washed twice with cold deionized water, and blotted on filter paper, weighted and frozen until processed. Brain samples were thawed and homogenized with 4-fold of cold water using Covaris (peak power 450.0, Duty Factor 20.0, Cycles/Burst 200). for 3 min, vortex for 10 second every 1 min. Samples were further stored at −79° C. (dilution factor=5) until bioanalysis

Where two headings read alike, the source gives them in different places.

As to `Cc1ccc(S(=O)(=O)n2ccc(C(=O)NCc3ncco3)c2)cc1` [Compound 86, 1-(4-methylbenzene-1-sulfonyl)-N-[(1,3-oxazol-2-yl)methyl]-1H-pyrrole-3-carboxamide], the Kp (subcutaneous) is 0.3. In addition, the half-life (SC administration, dose 3 (mg/mg) (Table 7)) was 42 min and the half-life (SC administration, dose 30 (mg/mg) (Table 7)) was 36 min. Also, the peak level (SC administration, dose 3 (mg/mg), vehicle 10% HP-betaCD (Table 7)) (Cmax) was 3020 ng/mL and the Cmax (SC administration, dose 30 (mg/mg), vehicle 10% HP-betaCD (Table 7)) worked out at 22000 ng/mL. For the same molecule, the “Estimated unbound brain Cmax” value runs as follows: (SC, dose 3 (mg/mg), based on brain/plasma ratio 0.3 and unbound fraction in brain 11%) 289 nM; (SC, dose 30 (mg/mg), based on brain/plasma ratio 0.3 and unbound fraction in brain 11%) 2100 nM. In addition, the “Unbound plasma, Cmax” value was determined as 700 nM (SC, dose 3 (mg/mg), unbound fraction in plasma 8%) and 5094 nM (SC, dose 30 (mg/mg), unbound fraction in plasma 8%).

For the molecule `Cc1cnc(CNC(=O)c2ccn(S(=O)(=O)c3ccc(F)cc3C)c2)cn1` [Compound 90, 1-(4-fluoro-2-methylbenzene-1-sulfonyl)-N-[(5-methylpyrazin-2-yl)methyl]-1H-pyrrole-3-carboxamide], the Kp is 0.4. In addition, the peak level (3 mg/kg, PO administration, dose 3 (mg/mg), vehicle 10% HP-betaCD) (Cmax) was 274 ng/mL. Also, the half-life (3 mg/kg, PO administration, dose 3 (mg/mg)) was 60 min. In addition, the maximum concentration (Cmax) (3 mg/kg, SC administration, dose 3 (mg/mg), vehicle 10% HP-betaCD) came to 1130 ng/mL. Also, under “3 mg/kg, SC administration, dose 3 (mg/mg)”, the half-life is 30 min. The molecule also returned a peak concentration (Cmax) (10 mg/kg, SC administration, dose 10 (mg/mg), vehicle 10% HP-betaCD) of 6360 ng/mL. The half-life (10 mg/kg, SC administration, dose 10 (mg/mg)) is 78 min. The Cmax (30 mg/kg, PO administration, dose 30 (mg/mg), vehicle 10% HP-betaCD) was 7350 ng/mL. The half-life (30 mg/kg, PO administration, dose 30 (mg/mg)) was 60 min. In addition, the “Estimated unbound brain Cmax” value (PO, dose 3 (mg/mg), based on brain/plasma ratio 0.4 and unbound fraction in brain 10%) was 28 nM. Further, the “Unbound plasma, Cmax” value (PO, dose 3 (mg/mg), unbound fraction in plasma 10%) was determined as 70 nM. Besides, the “Estimated unbound brain Cmax” value (PO, dose 30 (mg/mg), based on brain/plasma ratio 0.4 and unbound fraction in brain 10%) was 753 nM. The “Unbound plasma, Cmax” value (PO, dose 30 (mg/mg), unbound fraction in plasma 10%) is 1895 nM. Also, the “Estimated unbound brain Cmax” value (SC, dose 3 (mg/mg), based on brain/plasma ratio 0.4 and unbound fraction in brain 10%) is reported as 116 nM. The “Unbound plasma, Cmax” value (SC, dose 3 (mg/mg), unbound fraction in plasma 10%) worked out at 291 nM. In addition, the “Estimated unbound brain Cmax” value (SC, dose 10 (mg/mg), based on brain/plasma ratio 0.4 and unbound fraction in brain 10%) is given as 656 nM. Where the note is “SC, dose 10 (mg/mg), unbound fraction in plasma 10%”, the “Unbound plasma, Cmax” value amounted to 1639 nM.

These data come from patent publication US20200131156A1, “ARYLSULFONYLPYROLECARBOXAMIDE DERIVATIVES AS Kv3 POTASSIUM CHANNEL ACTIVATORS” (H. Lundbeck A/S, priority 2018, published 2020).
